The results in this text go back to PMC12434091, “Real-time monitoring with iTLR4 assay identifies ligand-dependent TLR4-TLR4 conformational dynamics” (Frontiers in Immunology, 2025).

For this assay, the target named is T1, Toll-like receptor 4 (TLR4) (Homo sapiens, UniProt O00206).
T1 construct: HA-TLR4-NLuc and HA-TLR4-Venus (C-terminal tags); with MD2 and CD14 (co-expressed; not required)
The experiment in a line: BRET TLR4-TLR4 proximity assay (iTLR4) in transfected HEK293 cells. Format: cell-based. Background: BRET reads energy transfer from a luciferase to a nearby fluorophore.

T1 sequence (O00206 24-839): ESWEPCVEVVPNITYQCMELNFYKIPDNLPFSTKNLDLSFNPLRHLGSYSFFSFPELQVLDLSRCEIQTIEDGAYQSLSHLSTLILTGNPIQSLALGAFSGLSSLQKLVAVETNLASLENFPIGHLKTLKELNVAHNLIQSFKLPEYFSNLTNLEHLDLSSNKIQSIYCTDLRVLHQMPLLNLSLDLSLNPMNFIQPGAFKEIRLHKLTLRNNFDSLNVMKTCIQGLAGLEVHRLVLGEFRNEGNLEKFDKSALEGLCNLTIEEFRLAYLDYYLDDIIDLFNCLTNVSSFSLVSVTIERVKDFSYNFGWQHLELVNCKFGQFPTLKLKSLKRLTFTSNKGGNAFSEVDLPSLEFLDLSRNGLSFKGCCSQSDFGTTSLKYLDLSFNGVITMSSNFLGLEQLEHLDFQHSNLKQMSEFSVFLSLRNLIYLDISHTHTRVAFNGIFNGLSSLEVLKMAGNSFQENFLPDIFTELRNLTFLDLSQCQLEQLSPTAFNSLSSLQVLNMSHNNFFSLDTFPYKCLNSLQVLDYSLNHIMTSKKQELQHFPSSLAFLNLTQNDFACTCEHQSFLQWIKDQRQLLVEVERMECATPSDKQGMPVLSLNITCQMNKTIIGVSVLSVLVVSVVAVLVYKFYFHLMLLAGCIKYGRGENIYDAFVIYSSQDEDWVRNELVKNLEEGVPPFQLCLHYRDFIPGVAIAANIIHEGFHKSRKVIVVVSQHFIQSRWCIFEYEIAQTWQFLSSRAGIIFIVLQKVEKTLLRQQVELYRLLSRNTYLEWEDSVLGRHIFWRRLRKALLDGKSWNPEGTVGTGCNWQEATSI
T1 sequence (Q9Y6Y9 19-160 partner): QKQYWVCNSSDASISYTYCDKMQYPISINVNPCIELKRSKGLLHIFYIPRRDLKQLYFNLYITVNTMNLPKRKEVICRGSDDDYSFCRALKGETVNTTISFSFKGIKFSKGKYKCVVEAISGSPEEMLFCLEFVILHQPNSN
T1 sequence (P08571 20-345 partner): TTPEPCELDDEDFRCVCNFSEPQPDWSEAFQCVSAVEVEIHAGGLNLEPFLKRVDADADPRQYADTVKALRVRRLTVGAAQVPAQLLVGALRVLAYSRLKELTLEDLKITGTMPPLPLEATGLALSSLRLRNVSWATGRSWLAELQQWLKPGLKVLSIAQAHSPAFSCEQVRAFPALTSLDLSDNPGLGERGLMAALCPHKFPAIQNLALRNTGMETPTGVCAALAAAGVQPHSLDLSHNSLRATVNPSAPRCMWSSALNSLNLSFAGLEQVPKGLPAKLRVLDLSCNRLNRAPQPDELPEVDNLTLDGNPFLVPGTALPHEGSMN

Usually EC50 stands for the midpoint of the concentration-response curve. A lower EC50 goes with greater potency. Compound `C=CCN1CC[C@@]23c4c5ccc(O)c4O[C@@H]2C(=O)CC[C@]3(O)[C@@H]1C5` [(+)-naloxone] had an EC50 of 4.2 µM.

For the compound `C=CCN1CC[C@]23c4c5ccc(O)c4O[C@H]2C(=O)CC[C@@]3(O)[C@H]1C5` [(-)-naloxone], a half-maximal response (EC50) required 3 µM.
